The record followed here is publication PMC5218480 (PLoS ONE, 2017).

The assay concerns MV-4-11 cells. The assay can be described thus: Gene expression microarray analysis (Affymetrix PrimeView) and GSEA. The following applies: ProbeSet 11747889_x_at; LIST B. Further details: RFU PODN (11730768_x_at) / Fold change /veh PODN (11730768_x_at) / RFU LINC00158 (11744669_a_at) / Fold change /veh LINC00158 (11744669_a_at) / RFU DUSP10 (11751237_a_at) / Fold change /veh DUSP10 (11751237_a_at) / RFU ID3 (11757404_x_at) / Fold change /veh ID3 (11757404_x_at) / RFU PLEKHG5 (11737974_s_at) / Fold change /veh PLEKHG5 (11737974_s_at) / RFU LRRC4B (11730491_at) / Fold change /veh LRRC4B (11730491_at) / RFU GIMAP4 (11747438_a_at) / Fold change /veh GIMAP4 (11747438_a_at) / RFU KRT8 (11758183_x_at) / Fold change /veh KRT8 (11758183_x_at) / RFU CNN1 (11734310_a_at) / Fold change /veh CNN1 (11734310_a_at) / RFU VPS37D (11726825_at) / Fold change /veh VPS37D (11726825_at) / RFU C10orf10 (11716522_x_at) / Fold change /veh C10orf10 (11716522_x_at) / RFU KIR2DL2 /// KIR2DL4 /// KIR2DL5A /// KIR2DL5B /// KIR2DS1 /// KIR2DS2 /// KIR2DS3 /// KIR2DS4 /// KIR3DL3 /// KIR3DL3 /// KIR3DS1 (11738374_at) / Fold change /veh KIR2DL2 /// KIR2DL4 /// KIR2DL5A /// KIR2DL5B /// KIR2DS1 /// KIR2DS2 /// KIR2DS3 /// KIR2DS4 /// KIR3DL3 /// KIR3DL3 /// KIR3DS1 (11738374_at) / RFU C1QL1 (11718748_at) / Fold change /veh C1QL1 (11718748_at) / RFU TMPRSS4 (11747572_a_at) / Fold change /veh TMPRSS4 (11747572_a_at) / RFU HAMP (11756126_x_at) / Fold change /veh HAMP (11756126_x_at) / RFU RNFT2 (11725882_a_at) / Fold change /veh RNFT2 (11725882_a_at) / RFU NR4A2 (11747474_a_at) / Fold change /veh NR4A2 (11747474_a_at) / RFU ABCC12 (11746883_a_at) / Fold change /veh ABCC12 (11746883_a_at) / RFU TMEM136 (11760407_x_at) / Fold change /veh TMEM136 (11760407_x_at) / RFU CLDN22 /// WWC2 (11732394_at) / Fold change /veh CLDN22 /// WWC2 (11732394_at) / RFU HLA-DPB1 (11760878_x_at) / Fold change /veh HLA-DPB1 (11760878_x_at) / RFU SPINT1 (11716480_a_at) / Fold change /veh SPINT1 (11716480_a_at) / RFU GAP43 (11754022_s_at) / Fold change /veh GAP43 (11754022_s_at) / RFU A4GNT (11735810_at) / Fold change /veh A4GNT (11735810_at) / RFU PRB3 (11715151_x_at) / Fold change /veh PRB3 (11715151_x_at) / RFU TUBB4B (11761932_at) / Fold change /veh TUBB4B (11761932_at) / RFU CAPN14 (11732068_a_at) / Fold change /veh CAPN14 (11732068_a_at) / RFU TMCC2 (11721928_a_at) / Fold change /veh TMCC2 (11721928_a_at) / RFU IRGQ (11745062_a_at) / Fold change /veh IRGQ (11745062_a_at) / RFU FAM174B (11720279_a_at) / Fold change /veh FAM174B (11720279_a_at) / RFU TMPRSS4 (11748680_a_at) / Fold change /veh TMPRSS4 (11748680_a_at) / RFU FAM212B (11763350_a_at) / Fold change /veh FAM212B (11763350_a_at) / RFU PLEKHG5 (11743358_a_at) / Fold change /veh PLEKHG5 (11743358_a_at) / RFU ZSCAN30 (11745921_a_at) / Fold change /veh ZSCAN30 (11745921_a_at) / RFU CMKLR1 (11741424_a_at) / Fold change /veh CMKLR1 (11741424_a_at) / RFU LOC101060620 /// MAPK8IP1 (11723275_at) / Fold change /veh LOC101060620 /// MAPK8IP1 (11723275_at) / RFU SPTSSB (11747773_x_at) / Fold change /veh SPTSSB (11747773_x_at) / RFU PRSS12 (11739890_at) / Fold change /veh PRSS12 (11739890_at) / RFU BIN1 (11741810_x_at) / Fold change /veh BIN1 (11741810_x_at) / RFU WNT11 (11732464_a_at) / Fold change /veh WNT11 (11732464_a_at) / RFU C10orf10 (11716521_a_at) / Fold change /veh C10orf10 (11716521_a_at) / RFU C5orf56 (11738089_at) / Fold change /veh C5orf56 (11738089_at) / RFU CYB561 (11721691_x_at) / Fold change /veh CYB561 (11721691_x_at) / RFU ANKRD19P (11752326_a_at) / Fold change /veh ANKRD19P (11752326_a_at) / RFU OR2T12 /// OR2T33 /// OR2T8 (11738714_s_at) / Fold change /veh OR2T12 /// OR2T33 /// OR2T8 (11738714_s_at) / RFU VCAN (11748164_a_at) / Fold change /veh VCAN (11748164_a_at) / RFU JSRP1 (11732532_at) / Fold change /veh JSRP1 (11732532_at) / RFU KRTAP10-11 (11738290_x_at) / Fold change /veh KRTAP10-11 (11738290_x_at) / RFU MYO3A (11730013_a_at) / Fold change /veh MYO3A (11730013_a_at) / RFU EBF3 (11725865_a_at) / Fold change /veh EBF3 (11725865_a_at) / RFU CAMK2N1 (11719241_x_at) / Fold change /veh CAMK2N1 (11719241_x_at) / RFU C5orf56 (11738088_a_at) / Fold change /veh C5orf56 (11738088_a_at) / RFU OLFML3 (11715873_a_at) / Fold change /veh OLFML3 (11715873_a_at) / RFU LOC100653217 /// NTM (11731650_a_at) / Fold change /veh LOC100653217 /// NTM (11731650_a_at) / RFU MAPK11 (11762145_a_at) / Fold change /veh MAPK11 (11762145_a_at) / RFU FIZ1 (11724087_x_at) / Fold change /veh FIZ1 (11724087_x_at) / RFU OASL (11726364_x_at) / Fold change /veh OASL (11726364_x_at) / RFU SOX15 (11748057_x_at) / Fold change /veh SOX15 (11748057_x_at) / RFU CD79A (11719716_a_at) / Fold change /veh CD79A (11719716_a_at) / RFU HIST1H1D (11736915_at) / Fold change /veh HIST1H1D (11736915_at) / RFU CASKIN2 (11723855_a_at) / Fold change /veh CASKIN2 (11723855_a_at) / RFU LOC730098 (11760151_x_at) / Fold change /veh LOC730098 (11760151_x_at) / RFU OR4N2 (11742367_at) / Fold change /veh OR4N2 (11742367_at) / RFU PRRT2 (11749266_a_at) / Fold change /veh PRRT2 (11749266_a_at) / RFU SNX32 (11753110_a_at) / Fold change /veh SNX32 (11753110_a_at) / RFU CDHR5 (11726645_a_at) / Fold change /veh CDHR5 (11726645_a_at) / RFU RCAN1 (11760418_a_at) / Fold change /veh RCAN1 (11760418_a_at) / RFU FAM167A (11723789_a_at) / Fold change /veh FAM167A (11723789_a_at) / RFU FAM26E (11764081_at) / Fold change /veh FAM26E (11764081_at) / RFU ISYNA1 (11749810_s_at) / Fold change /veh ISYNA1 (11749810_s_at) / RFU ACY1 (11761880_at) / Fold change /veh ACY1 (11761880_at) / RFU 11764098_at / Fold change /veh 11764098_at / RFU SAMD14 (11745864_x_at) / Fold change /veh SAMD14 (11745864_x_at) / RFU NPB (11741838_a_at) / Fold change /veh NPB (11741838_a_at) / RFU TMPRSS6 (11731388_a_at) / Fold change /veh TMPRSS6 (11731388_a_at) / RFU KRTAP10-2 (11738614_at) / Fold change /veh KRTAP10-2 (11738614_at) / RFU ARHGAP8 /// PRR5-ARHGAP8 (11727945_x_at) / Fold change /veh ARHGAP8 /// PRR5-ARHGAP8 (11727945_x_at) / RFU KRTAP5-7 /// NADSYN1 (11734609_at) / Fold change /veh KRTAP5-7 /// NADSYN1 (11734609_at) / RFU RASL12 (11751679_a_at) / Fold change /veh RASL12 (11751679_a_at) / RFU CDKN2B (11736163_a_at) / Fold change /veh CDKN2B (11736163_a_at) / RFU PRF1 (11729649_at) / Fold change /veh PRF1 (11729649_at) / RFU, ZNF638 /// ZNF638-IT1 / Fold change vs veh, ZNF638 /// ZNF638-IT1 / RFU, PANK3 / Fold change vs veh, PANK3 / RFU, SH3YL1 / Fold change vs veh, SH3YL1 / RFU, ZEB2 / Fold change vs veh, ZEB2 / RFU, NRIP1 / Fold change vs veh, NRIP1 / RFU, PTTG1IP / Fold change vs veh, PTTG1IP / RFU, CAPN2 / Fold change vs veh, CAPN2 / RFU, MED14 / Fold change vs veh, MED14 / RFU, SNORA58 / Fold change vs veh, SNORA58 / RFU, C1orf63 / Fold change vs veh, C1orf63 / RFU, LRRFIP1 / Fold change vs veh, LRRFIP1 / RFU, NDUFAF7 / Fold change vs veh, NDUFAF7 / RFU, SLC12A2 / Fold change vs veh, SLC12A2 / RFU, IBTK / Fold change vs veh, IBTK / RFU, ESF1 / Fold change vs veh, ESF1 / Fold change vs veh, TMEM50B / RFU, TAOK1 / Fold change vs veh, TAOK1 / RFU, ACBD3 / Fold change vs veh, ACBD3 / RFU, TMA16 / Fold change vs veh, TMA16 / RFU, RWDD3 / Fold change vs veh, RWDD3 / RFU, BCAT1 / Fold change vs veh, BCAT1 / RFU, EDEM3 / Fold change vs veh, EDEM3 / RFU, TMEM33 / Fold change vs veh, TMEM33 / RFU, WDR75 / Fold change vs veh, WDR75 / RFU, AHCTF1 / Fold change vs veh, AHCTF1 / RFU, TFRC / Fold change vs veh, TFRC / RFU, ZDHHC17 / Fold change vs veh, ZDHHC17 / RFU, NOM1 / Fold change vs veh, NOM1 / RFU, ARL8B / Fold change vs veh, ARL8B / RFU, ZBTB11 / Fold change vs veh, ZBTB11 / RFU, TAMM41 / Fold change vs veh, TAMM41 / RFU, KIAA1704 /// LOC100996395 / Fold change vs veh, KIAA1704 /// LOC100996395 / RFU, ING1 / Fold change vs veh, ING1 / RFU, TRMT61B / Fold change vs veh, TRMT61B / RFU, FUBP3 / Fold change vs veh, FUBP3 / RFU, TP53 / Fold change vs veh, TP53 / RFU, TNKS2 / Fold change vs veh, TNKS2 / RFU, ZFP14 / Fold change vs veh, ZFP14 / RFU, ACTR2 / Fold change vs veh, ACTR2 / RFU, PPP3R1 / Fold change vs veh, PPP3R1 / RFU, PIK3R1 / Fold change vs veh, PIK3R1 / RFU, HNRNPA1 / Fold change vs veh, HNRNPA1 / RFU, RNF170 / Fold change vs veh, RNF170 / RFU, ZNF28 / Fold change vs veh, ZNF28 / RFU, RNGTT / Fold change vs veh, RNGTT / RFU, OGT / Fold change vs veh, OGT / RFU, BRD1 / Fold change vs veh, BRD1 / RFU, MARS / Fold change vs veh, MARS / RFU, ZNF655 / Fold change vs veh, ZNF655 / RFU, FAHD1 / Fold change vs veh, FAHD1 / RFU, BDP1 / Fold change vs veh, BDP1 / RFU, LRRCC1 / Fold change vs veh, LRRCC1 / RFU, ARID1A / Fold change vs veh, ARID1A / RFU, ZNF146 / Fold change vs veh, ZNF146 / RFU, ZNF330 / Fold change vs veh, ZNF330 / RFU, GPN3 / Fold change vs veh, GPN3 / RFU, C9orf123 / Fold change vs veh, C9orf123 / RFU, N4BP2L2 / Fold change vs veh, N4BP2L2 / RFU, ARFIP1 / Fold change vs veh, ARFIP1 / RFU, FAM179B / Fold change vs veh, FAM179B / RFU, BCL10 / Fold change vs veh, BCL10 / RFU, UHRF1BP1L / Fold change vs veh, UHRF1BP1L / RFU, BET1 / Fold change vs veh, BET1 / RFU, CNOT2 / Fold change vs veh, CNOT2 / RFU, ZNF268 / Fold change vs veh, ZNF268 / Fold change vs veh, ZNF507 / RFU, DGCR2 / Fold change vs veh, DGCR2 / RFU, WDSUB1 / Fold change vs veh, WDSUB1 / Fold change vs veh, HSP90B1 /// MIR3652 / RFU, ADSS / Fold change vs veh, ADSS / RFU, GK / Fold change vs veh, GK / RFU, ZNF148 / Fold change vs veh, ZNF148 / RFU, TAF9 / Fold change vs veh, TAF9 / RFU, SLC1A5 / Fold change vs veh, SLC1A5 / RFU, SLMO2 / Fold change vs veh, SLMO2 / RFU, ABCC4 / Fold change vs veh, ABCC4 / RFU, LOC101060439 /// RAP1B / Fold change vs veh, LOC101060439 /// RAP1B / RFU, RFX7 / Fold change vs veh, RFX7 / RFU, GTPBP10 / Fold change vs veh, GTPBP10 / RFU, CNEP1R1 / Fold change vs veh, CNEP1R1 / RFU, BIVM-ERCC5 /// ERCC5 / Fold change vs veh, BIVM-ERCC5 /// ERCC5 / RFU, ILF3 / Fold change vs veh, ILF3 / RFU 11762660_at / Fold change /veh 11762660_at / RFU VCAN (11757783_s_at) / Fold change /veh VCAN (11757783_s_at) / RFU DDX43 (11728927_at) / Fold change /veh DDX43 (11728927_at) / RFU KRT8 (11758188_x_at) / Fold change /veh KRT8 (11758188_x_at) / RFU NKD1 (11759106_at) / Fold change /veh NKD1 (11759106_at) / RFU SRD5A1 (11742802_a_at) / Fold change /veh SRD5A1 (11742802_a_at) / RFU TPSAB1 /// TPSB2 (11721975_s_at) / Fold change /veh TPSAB1 /// TPSB2 (11721975_s_at) / RFU GSTM3 (11746129_a_at) / Fold change /veh GSTM3 (11746129_a_at) / RFU IL23R (11737362_x_at) / Fold change /veh IL23R (11737362_x_at) / RFU TMEM51 (11727254_a_at) / Fold change /veh TMEM51 (11727254_a_at) / RFU PIWIL2 (11732686_x_at) / Fold change /veh PIWIL2 (11732686_x_at) / RFU ORM1 (11744905_x_at) / Fold change /veh ORM1 (11744905_x_at) / RFU CCDC152 (11743942_at) / Fold change /veh CCDC152 (11743942_at) / RFU ECM1 (11717891_a_at) / Fold change /veh ECM1 (11717891_a_at) / RFU IL23R (11748794_a_at) / Fold change /veh IL23R (11748794_a_at) / RFU TNFAIP8L3 (11732012_x_at) / Fold change /veh TNFAIP8L3 (11732012_x_at) / RFU MBOAT4 (11741988_at) / Fold change /veh MBOAT4 (11741988_at) / RFU 11764193_at / Fold change /veh 11764193_at / RFU TMEM53 (11763286_at) / Fold change /veh TMEM53 (11763286_at) / RFU MAGEB2 (11727129_at) / Fold change /veh MAGEB2 (11727129_at) / RFU TMEM200A (11744735_a_at) / Fold change /veh TMEM200A (11744735_a_at) / RFU CCDC152 (11751479_a_at) / Fold change /veh CCDC152 (11751479_a_at) / RFU FAM211A (11726209_a_at) / Fold change /veh FAM211A (11726209_a_at) / RFU RGS16 (11746705_a_at) / Fold change /veh RGS16 (11746705_a_at) / RFU VCAN (11755009_s_at) / Fold change /veh VCAN (11755009_s_at) / RFU RHOB (11743442_s_at) / Fold change /veh RHOB (11743442_s_at) / RFU RGS16 (11720943_a_at) / Fold change /veh RGS16 (11720943_a_at) / RFU RGS16 (11720944_at) / Fold change /veh RGS16 (11720944_at) / RFU, VPS4B / Fold change vs veh, VPS4B / RFU, CREB1 / Fold change vs veh, CREB1 / RFU, DNAJC13 / Fold change vs veh, DNAJC13 / RFU, GNAQ / Fold change vs veh, GNAQ / RFU, CDK5R1 / Fold change vs veh, CDK5R1 / RFU, ZRANB3 / Fold change vs veh, ZRANB3 / RFU, CUL4A / Fold change vs veh, CUL4A / RFU, CCNY / Fold change vs veh, CCNY / RFU, UFL1 / Fold change vs veh, UFL1 / RFU, COG3 / Fold change vs veh, COG3 / RFU, DIAPH2 / Fold change vs veh, DIAPH2 / RFU, SKA2 / Fold change vs veh, SKA2 / RFU, AFF3 / Fold change vs veh, AFF3 / RFU, LMF1 / Fold change vs veh, LMF1 / RFU, IPO11 / Fold change vs veh, IPO11 / RFU, DFFB / Fold change vs veh, DFFB / RFU, FOXP1 / Fold change vs veh, FOXP1 / RFU, CARD8 / Fold change vs veh, CARD8 / RFU, STRN3 / Fold change vs veh, STRN3 / RFU, ADK / Fold change vs veh, ADK / RFU, RASSF2 / Fold change vs veh, RASSF2 / RFU, WIPF1 / Fold change vs veh, WIPF1 / RFU, LARP1B / Fold change vs veh, LARP1B / RFU, RASA1 / Fold change vs veh, RASA1 / RFU, RB1 / Fold change vs veh, RB1 / RFU, PPFIA1 / Fold change vs veh, PPFIA1 / RFU, MAT2A / Fold change vs veh, MAT2A / RFU, CCT5 / Fold change vs veh, CCT5 / RFU, WDR92 / Fold change vs veh, WDR92 / RFU, CUX1 / Fold change vs veh, CUX1 / RFU, TTC7A / Fold change vs veh, TTC7A / RFU, TMEM135 / Fold change vs veh, TMEM135 / RFU, DEPTOR / Fold change vs veh, DEPTOR / RFU, CPM / Fold change vs veh, CPM / RFU, DNAJB6 / Fold change vs veh, DNAJB6 / RFU, CACNA2D3 / Fold change vs veh, CACNA2D3 / RFU, DTX4 / Fold change vs veh, DTX4 / RFU, TFCP2 / Fold change vs veh, TFCP2 / RFU, GMCL1 /// GMCL1P1 / Fold change vs veh, GMCL1 /// GMCL1P1 / RFU, AEBP2 / Fold change vs veh, AEBP2 / RFU, SNHG1 /// SNORD22 /// SNORD25 /// SNORD26 /// SNORD27 /// SNORD28 /// SNORD29 /// SNORD31 / Fold change vs veh, SNHG1 /// SNORD22 /// SNORD25 /// SNORD26 /// SNORD27 /// SNORD28 /// SNORD29 /// SNORD31 / Fold change (Aza/veh), C12orf56 (ProbeSet 11735607_a_at) / Fold change (ACY-1035/veh), C12orf56 (ProbeSet 11735607_a_at) / Fold change (Aza/veh), FGFR1OP (ProbeSet 11751329_s_at) / Fold change (ACY-1035/veh), FGFR1OP (ProbeSet 11751329_s_at) / Fold change (Aza/veh), VPS36 (ProbeSet 11739960_a_at) / Fold change (ACY-1035/veh), VPS36 (ProbeSet 11739960_a_at) / RFU SYPL1 (11715823_x_at) / Fold change /veh SYPL1 (11715823_x_at) / RFU IGFBP7 (11715501_s_at) / Fold change /veh IGFBP7 (11715501_s_at) / RFU REEP3 (11722064_at) / Fold change /veh REEP3 (11722064_at) / RFU IGLL1 (11728026_x_at) / Fold change /veh IGLL1 (11728026_x_at): dose or concentration left out as unconfirmed. The class given is cell-based, human.

Consider `Nc1ccc(-c2cccs2)cc1NC(=O)c1ccc2c(c1)cc(C1CC1)n2CCN1CCOCC1` [ACY-1035], for which the “Fold change vs veh, SH3YL1” value is 0.99.
